Assay results as given in ChEMBL document CHEMBL1201862, “PubChem BioAssay data set” (2004).
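Growth conditions: 96-well plates. Treatment: test compound, 48 hours, 5 concentrations. Analysis: linear interpolation between bracketing concentrations; unreached endpoints set to highest concentration. GI50 = concentration required for 50% inhibition of growth.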 Calls of active or inactive are those of the source. Rule as the data show it: active = GI50 up to about 1.1 µM and inactive = higher.

Columns and labels:
Assay in all cases: inhibition of tumour cell growth, NCI panel, 48 h
TK-10 = test system: TK-10
K562 = test system: K562
HCC 2998 = test system: HCC 2998
M14 = test system: M14
NCI-H23 = test system: NCI-H23
OVCAR-4 = test system: OVCAR-4
OVCAR-5 = test system: OVCAR-5
HCT-116 = test system: HCT-116
OVCAR-3 = test system: OVCAR-3
SK-MEL-2 = test system: SK-MEL-2
KM12 = test system: KM12
RXF 393 = test system: RXF 393
HL-60 = test system: HL-60
SN12C = test system: SN12C
T47D = test system: T47D
COLO 205 = test system: COLO 205
HOP-62 = test system: HOP-62
PC-3 = test system: PC-3
RPMI-8226 = test system: RPMI-8226
SW-620 = test system: SW-620

SMILES	GI50 (TK-10)	GI50 (K562)	GI50 (HCC 2998)	GI50 (M14)	GI50 (NCI-H23)	GI50 (OVCAR-4)	GI50 (OVCAR-5)	GI50 (HCT-116)	GI50 (OVCAR-3)	GI50 (SK-MEL-2)	GI50 (KM12)	GI50 (RXF 393)	GI50 (HL-60)	GI50 (SN12C)	GI50 (T47D)	GI50 (COLO 205)	GI50 (HOP-62)	GI50 (PC-3)	GI50 (RPMI-8226)	GI50 (SW-620)
CCc1ccc2c(c1)CC1(C2)Cc2cc3c(cc2C1)C(=O)CC3 (stereo not drawn)	38.6 µM (inactive)	3.85 µM (inactive)	10.5 µM (inactive)	25.9 µM (inactive)	22.9 µM (inactive)	15 µM (inactive)	27.5 µM (inactive)	12.1 µM (inactive)	17.3 µM (inactive)	4.26 µM (inactive)	10.5 µM (inactive)	36.9 µM (inactive)	2.69 µM (inactive)	27 µM (inactive)	12.1 µM (inactive)	4.93 µM (inactive)	19.8 µM (inactive)	16.3 µM (inactive)	18.5 µM (inactive)	
Cc1[nH]n(-c2ncc(C#N)c(=O)[nH]2)c(=O)c1CCO	> 100 µM (inactive)	> 100 µM (inactive)	> 100 µM (inactive)	> 100 µM (inactive)	> 100 µM (inactive)	> 100 µM (inactive)	> 100 µM (inactive)	> 100 µM (inactive)	> 100 µM (inactive)	> 100 µM (inactive)	> 100 µM (inactive)	> 100 µM (inactive)		> 100 µM (inactive)	> 100 µM (inactive)	> 100 µM (inactive)	> 100 µM (inactive)	> 100 µM (inactive)	> 100 µM (inactive)	> 100 µM (inactive)
O=c1[nH]c2ccccc2c2nc3ccccc3n12	6.75 µM (inactive)	> 100 µM (inactive)	27.9 µM (inactive)	> 100 µM (inactive)	42.5 µM (inactive)	2 µM (inactive)	> 100 µM (inactive)	19.1 µM (inactive)	54.5 µM (inactive)		22.4 µM (inactive)	28.7 µM (inactive)	> 100 µM (inactive)	> 100 µM (inactive)	> 100 µM (inactive)	29.2 µM (inactive)	38.1 µM (inactive)	> 100 µM (inactive)	> 100 µM (inactive)	61.2 µM (inactive)
CCOC(=O)c1cc(-c2ccc(OC)c(OC)c2)c[nH]1	> 10 µM (inactive)	> 10 µM (inactive)	> 10 µM (inactive)	> 10 µM (inactive)	> 10 µM (inactive)	> 10 µM (inactive)	> 10 µM (inactive)	> 10 µM (inactive)	> 10 µM (inactive)	> 10 µM (inactive)	> 10 µM (inactive)	> 10 µM (inactive)	> 10 µM (inactive)	> 10 µM (inactive)	> 10 µM (inactive)	> 10 µM (inactive)	> 10 µM (inactive)	> 10 µM (inactive)	> 10 µM (inactive)	
Cc1cc2c(s1)C(=O)c1sccc1C2=O	2.85 µM (inactive)	1.91 µM (inactive)	1.75 µM (inactive)	0.176 µM (active)	0.171 µM (active)	0.561 µM (active)	1.86 µM (inactive)	0.998 µM (active)	0.83 µM (active)	0.385 µM (active)	1.63 µM (inactive)	1.17 µM (inactive)	3.34 µM (inactive)	0.388 µM (active)	1.63 µM (inactive)	1.9 µM (inactive)		0.942 µM (active)	1.88 µM (inactive)	0.275 µM (active)
CC(=O)OCC1OC(Nn2c(=O)[nH]c3ccccc3c2=O)C(OC(C)=O)C(OC(C)=O)C1OC(C)=O (stereo not drawn)		> 100 µM (inactive)	15 µM (inactive)	> 100 µM (inactive)	> 100 µM (inactive)		> 100 µM (inactive)	> 100 µM (inactive)	> 100 µM (inactive)	> 100 µM (inactive)	> 100 µM (inactive)	> 100 µM (inactive)	> 100 µM (inactive)	> 100 µM (inactive)	35.5 µM (inactive)	> 100 µM (inactive)	> 100 µM (inactive)	> 100 µM (inactive)	> 100 µM (inactive)	> 100 µM (inactive)
